What was measured:
[1] = Fluorescence depolarization (FD) with DPH encapsulated in PA nanofibers; type: physicochemical; details: for supramolecular motion on addition of Ca2+: 5 mM CaCl2, confirmed by FD and T2-NMR; for fluorescence anisotropy: DPH probe in hydrophobic core of IKVAV PA nanofibers
Protocol: An aqueous solution of 100 μL of annealed PA ([PA]=6 mM, [KCl]=3 mM, [NaCl]=150 mM) was added a THF solution (2 μL) of 1,6-diphenyl-1,3,5-hexatriene (DPH; 1.4 mM), and the mixture was incubated for 30 min at 25° C. Then, the mixture was diluted with aqueous KCl and NaCl (1900 μL, [KCl]=3 mM, [NaCl]=150 mM), incubated for 10-30 min at 25° C. to afford a solution of DPH (1.4 μM)-embedded PA (300 μM). To obtain IKVAV PA2 (A2G2) or IKVAV PA5 (G4) in the presence of CaCl2), 5 mM CaCl2) was then added to the DPH-embedded PA aqueous solution to afford PA: CaCl2) at a molar ratio of 6:1. DPH was exited at 336 nm and emission was recorded at 450 nm on an ISS model PC1 spectrofluorometer with a 300 W xenon arc lamp with power of 18 A. Excitation slit and emission slit widths were set as 1 mm (8 nm bandwidth). Anisotropy was calculated using the following equation: […]
Where F∥ represents the parallel intensity to the excitation plane, F⊥ is the perpendicular intensity to the excitation plane, g is grating factor (G-factor) that represents the intensity ratio of the sensitivity of the detection system for vertically and horizontally polarized light. G-factors were determined individually in each measurement. Results were averaged based on 34 iterations from two measurements.

[2] = T2-NMR spin-spin relaxation rate of PA assemblies; type: physicochemical; details: for relaxation rate 1H-R2 of methylene protons on ε carbon of K residue in IKVAV: T2-NMR, IKVAV PA library
Protocol: NMR spectra were acquired at 600 MHz on a Tecmag NMR spectrometer using a Doty diffusion probe with a sweep width of 6 kHz and 16k data points or at 600 MHz on a Brucker Neo system with QCI-F cryoprobe.
NMR spectra for IKVAV PAs were recorded at 25° C. using TFA-d, H2O/D2O in 9/1 ratio (D2O contains 0.05 wt. % 3-(trimethylsilyl) propionic-2,2,3,3-d4 acid, sodium salt) as solvents. Chemical shifts are reported in part per million (ppm). Structural assignment was performed using ^1H,^1H-gCOSY, ^1H,^13C-gHSCQAD, TOCSY and NOESY. Multiplicities are quoted as singlet (s), doublet (d), multiplets (m), doublet of doublets (dd), doublet of doublet of doublets (ddd), triplet (t), quartet (q). The […] and typical spectra required 32 scans. Additional scans (512) were required for accurate estimation of the aromatic signal intensity since the epitope containing aromatic protons was present at only 10 mol %.
The spin-spin relaxation rates were measured using the Carr-Purcell-Gill-Meiboom pulse sequence with a delay time of 0.2 ms in a variable loop. The peak intensity data was fit to and exponential in the form:
where τ is the length of the delay time, R2 is the spin-spin relaxation rate and b are the baseline.

[3] = test system: murine model of severe spinal cord injury (SCI); test: Corticospinal tract (CST) axon regrowth after SCI (BDA tracing); type: in vivo, mouse; details: 12 weeks after injury, BDA-labeled axons
Protocol: All experiments were conducted at the Simpson Querrey Institute at Northwestern University. 182 CD1 mice (Charles River) were subjects of this study (N=38 Sham, N=38 IKVAV PA2 alone, N=38 IKVAV PA2+FGF2 PA1, N=38 IKVAV PA2+FGF2 PA2, N=12 IKVAV PA1, N=12 Backbone PA, N=6 IKVAV PA4). The age of animals used in the study was in the range of 10-16 weeks. 8 independent in vivo experiments were carried out (injury+PA injection) and each of the 8 experiments had animals of the exact same age which were injected with at least the 4 main treatment groups: Sham, IKVAV PA2 alone, IKVAV PA2+FGF2 PA1, and IKVAV PA2+FGF2 PA2. Animals were anesthetized using 2.5% isoflurane gas with oxygen. A laminectomy was performed to expose the spinal cord at the T10-T11 spinal level. A severe contusive injury was performed using the Infinite Horizon Spinal Cord Impactor system (IH-0400 Precision Systems and Instrumentation) with 85 kdyn of impact force and a dwell time of 60 s. After the lesion, the skin was sutured using 9 mm wound clips (BD Biosciences) and the animals were recovered on a heating pad to maintain body temperature. Bladders were manually expressed daily during the entire 12 weeks of the experiment.
PAs (dissolved in sterile NaCl 0.9% solution at 1 wt %) were injected 24 h after SCI using a glass capillary micropipette (Sutter Instruments, Novato, CA) (outer diameter, 100 m) coated with Sigmacote (Sigma-Aldrich) to reduce surface tension as described elsewhere (19). The capillaries were loaded onto a Hamilton syringe using a female Luer adaptor (World Precision Instruments) controlled by a Micro4 microsyringe pump controller (World Precision Instruments). Under isoflurane anesthesia, autoclips were removed and the injury site was exposed. At 24 h post injury, the laminectomy in the spinal column was still intact and the bruise created by the lesion was visible. A stereotaxic Kopf apparatus was used to position the micropipette just dorsal to the lesion. The micropipette was lowered to a depth of 750 m measured from the dorsal surface of the cord, and 4-6 μL of the diluted amphiphile solution was injected at 1 L/min. […]
Axons labeled using BDA (Thermofisher, N7167) or stained with 5HT (Abcam) were quantified using Imaris® software version 9.3 as previously described (21). Lines were drawn across longitudinal spinal cord sections from the proximal border (PB) to the distal border (DB) of the SCI lesion at consistent distances and the number of axons intercepting the lines drawn was counted by researchers that were blinded to the experimental conditions. Multiple sections through the middle of the cord, where BDA or 5HT staining was denser, were counted per mouse and expressed as total intercepts per location, per animal. […]

[4] = T2 relaxation of K residue of IKVAV PAs, no Ca2+

Substance	supramolecular motion on addition of Ca2+ [1]	fluorescence anisotropy [1]	relaxation rate 1H-R2 of methylene protons on ε carbon of K residue in IKVAV [2] [s⁻¹]	R2 [2, 4] [s⁻¹]	R2 ([2]; T2 relaxation of K residue, +Ca2+) [s⁻¹]	CST axon regrowth within the lesion [3]
C16-A2G2E4GIKVAV [IKVAV PA2]	suppressed	0.21	2.7 ± 0.1	2.7 ± 0.1	8.6 ± 0.5	modest, but increased axon regrowth
C16-G4E4GIKVAV [IKVAV PA5]	suppressed	0.18	2.6 ± 0.003	2.6 ± 0.03		
C16-VAG2E4GIKVAV [IKVAV PA4]		0.30		5.6 ± 0.4		intermediate level of axon regrowth
C16-V2A2E4GIKVAV [IKVAV PA1]				11.2 ± 2.9		some regrowth of axons

Reference: patent publication US20240325548A1, “DYNAMIC BIOACTIVE SCAFFOLDS AND THERAPEUTIC USES THEREOF AFTER CNS INJURY” (Northwestern University, priority 2021, published 2024)
